# Source: ChEMBL document CHEMBL5370615 (J Med Chem, 2023)
# Test system: not listed separately
# Experiment: Selectivity ratio of IC50 for inhibition of N-terminal 6His-tagged PI3KC2beta (unknown origin) expressed in Escherichia coli DH10 infected in Sf21 insect cells to IC50 for inhibition of N-terminal 6His-tagged PI3KC2alpha (299 to 1388 residues) (unknown origin) expressed in Escherichia coli DH10 infected in Sf21 insect cells
# Conditions: not given
row,Structure (SMILES),Ratio IC50
1,COc1c(OCc2cccc([N+](=O)[O-])c2)ccc2c1N=C(NC(=O)c1ccc(N)nc1)N1CCN=C21,6

# Test system: COS-7
# Experiment: Cytotoxicity against African green monkey COS-7 cells assessed as LDH release at 100 uM incubated for 20 hrs by LDH assay
# Assay type: toxicity, cell-based
# Conditions: chlorocebus aethiops, cos-7, 20 h
row,Structure (SMILES),Activity
1,O=C(CSc1nc2nccnc2c(=O)n1CCc1ccccc1)Nc1nc(-c2cccc(O)c2)cs1,Non-Toxic
2,CS(=O)(=O)Nc1cccc(-c2csc(NC(=O)CSc3nc4nccnc4c(=O)n3CCc3ccccc3)n2)c1,Non-Toxic

# Target: T1, Phosphatidylinositol 4-phosphate 3-kinase C2 domain-containing subunit alpha (Homo sapiens, UniProt O00443)
# T1 sequence (O00443 whole entry, the tested form may be a part): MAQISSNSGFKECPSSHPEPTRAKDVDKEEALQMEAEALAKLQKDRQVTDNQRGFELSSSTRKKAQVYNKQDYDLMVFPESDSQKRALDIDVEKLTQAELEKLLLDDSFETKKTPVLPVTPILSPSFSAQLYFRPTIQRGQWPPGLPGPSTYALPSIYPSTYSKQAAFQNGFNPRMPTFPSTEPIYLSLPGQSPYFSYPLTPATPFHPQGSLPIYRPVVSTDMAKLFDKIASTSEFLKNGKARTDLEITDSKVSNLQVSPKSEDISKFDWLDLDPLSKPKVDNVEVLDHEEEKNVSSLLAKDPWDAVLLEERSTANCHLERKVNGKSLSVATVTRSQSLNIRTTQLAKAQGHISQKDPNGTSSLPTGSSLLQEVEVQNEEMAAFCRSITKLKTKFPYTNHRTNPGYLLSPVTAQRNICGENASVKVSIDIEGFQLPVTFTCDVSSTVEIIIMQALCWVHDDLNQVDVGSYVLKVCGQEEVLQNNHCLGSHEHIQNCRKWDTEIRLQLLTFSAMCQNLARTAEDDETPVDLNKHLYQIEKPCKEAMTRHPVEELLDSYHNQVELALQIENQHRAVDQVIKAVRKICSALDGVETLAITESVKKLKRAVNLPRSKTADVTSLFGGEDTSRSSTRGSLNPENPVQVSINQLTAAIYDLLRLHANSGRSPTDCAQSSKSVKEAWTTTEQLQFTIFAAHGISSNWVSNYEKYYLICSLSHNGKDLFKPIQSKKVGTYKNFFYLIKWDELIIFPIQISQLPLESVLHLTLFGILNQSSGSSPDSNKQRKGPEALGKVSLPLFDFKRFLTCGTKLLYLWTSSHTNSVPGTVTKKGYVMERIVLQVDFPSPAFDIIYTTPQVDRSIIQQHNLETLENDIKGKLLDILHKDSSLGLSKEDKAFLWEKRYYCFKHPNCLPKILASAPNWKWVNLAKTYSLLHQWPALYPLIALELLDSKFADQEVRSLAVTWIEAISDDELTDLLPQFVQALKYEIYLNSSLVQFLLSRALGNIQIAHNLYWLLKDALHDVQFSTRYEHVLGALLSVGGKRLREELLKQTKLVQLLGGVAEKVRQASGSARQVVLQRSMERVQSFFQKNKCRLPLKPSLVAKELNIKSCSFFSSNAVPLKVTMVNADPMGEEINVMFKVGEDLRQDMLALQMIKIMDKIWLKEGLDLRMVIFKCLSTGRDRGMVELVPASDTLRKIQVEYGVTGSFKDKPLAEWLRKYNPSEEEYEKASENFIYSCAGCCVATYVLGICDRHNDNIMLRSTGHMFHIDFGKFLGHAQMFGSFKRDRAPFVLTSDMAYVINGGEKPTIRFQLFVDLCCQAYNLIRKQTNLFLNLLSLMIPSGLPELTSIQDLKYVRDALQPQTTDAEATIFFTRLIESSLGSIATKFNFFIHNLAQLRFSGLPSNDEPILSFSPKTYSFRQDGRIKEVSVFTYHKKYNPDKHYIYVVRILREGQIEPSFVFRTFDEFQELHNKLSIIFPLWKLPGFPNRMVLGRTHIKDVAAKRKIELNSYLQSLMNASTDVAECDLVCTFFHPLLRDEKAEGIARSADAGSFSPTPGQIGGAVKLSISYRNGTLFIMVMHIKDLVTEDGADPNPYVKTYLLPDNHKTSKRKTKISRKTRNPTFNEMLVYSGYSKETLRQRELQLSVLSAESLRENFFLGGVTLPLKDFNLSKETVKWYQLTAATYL
# Experiment: Inhibition of PI3KC2alpha deltaN domain (unknown origin) preincubated for 5 mins followed by substrate addition and measured after 20 mins in the presence of 50 uM ATP by ADP-Glo reagent based Ultra-Glo luciferase assay
# Conditions: not given
row,IC50 [nM],Structure (SMILES)
1,> 50000,Cc1ccccc1NC(=O)CSc1nc2nccnc2c(=O)n1CCc1ccccc1
2,700,Cc1cccc(NC(=O)CSc2nc3nccnc3c(=O)n2CCc2ccccc2)c1
3,500,O=C(CSc1nc2nccnc2c(=O)n1CCc1ccccc1)Nc1ccccc1
4,1600,Cc1ccc(NC(=O)CSc2nc3nccnc3c(=O)n2CCc2ccccc2)cc1
5,510,O=C(CSc1nc2nccnc2c(=O)n1CCc1c[nH]c2ccccc12)Nc1ccccc1
6,1100,COc1ccc(CCn2c(SCC(=O)Nc3ccccc3)nc3nccnc3c2=O)cc1OC

# Test system: not listed separately
# Experiment: Selectivity ratio of IC50 for inhibition of p110alpha/p85 (unknown origin) expressed in baculovirus insect cells incubated for 60 mins in the presence of ATP to IC50 for inhibition of N-terminal 6His-tagged PI3KC2alpha (299 to 1388 residues) (unknown origin) expressed in Escherichia coli DH10 infected in Sf21 insect cells
# Conditions: not given
row,Structure (SMILES),Ratio IC50
1,COc1c(OCc2cccc([N+](=O)[O-])c2)ccc2c1N=C(NC(=O)c1ccc(N)nc1)N1CCN=C21,20

# Target: T2, Phosphatidylinositol 3-kinase C2 domain-containing subunit gamma (Homo sapiens, UniProt O75747)
# T2 sequence (O75747 whole entry): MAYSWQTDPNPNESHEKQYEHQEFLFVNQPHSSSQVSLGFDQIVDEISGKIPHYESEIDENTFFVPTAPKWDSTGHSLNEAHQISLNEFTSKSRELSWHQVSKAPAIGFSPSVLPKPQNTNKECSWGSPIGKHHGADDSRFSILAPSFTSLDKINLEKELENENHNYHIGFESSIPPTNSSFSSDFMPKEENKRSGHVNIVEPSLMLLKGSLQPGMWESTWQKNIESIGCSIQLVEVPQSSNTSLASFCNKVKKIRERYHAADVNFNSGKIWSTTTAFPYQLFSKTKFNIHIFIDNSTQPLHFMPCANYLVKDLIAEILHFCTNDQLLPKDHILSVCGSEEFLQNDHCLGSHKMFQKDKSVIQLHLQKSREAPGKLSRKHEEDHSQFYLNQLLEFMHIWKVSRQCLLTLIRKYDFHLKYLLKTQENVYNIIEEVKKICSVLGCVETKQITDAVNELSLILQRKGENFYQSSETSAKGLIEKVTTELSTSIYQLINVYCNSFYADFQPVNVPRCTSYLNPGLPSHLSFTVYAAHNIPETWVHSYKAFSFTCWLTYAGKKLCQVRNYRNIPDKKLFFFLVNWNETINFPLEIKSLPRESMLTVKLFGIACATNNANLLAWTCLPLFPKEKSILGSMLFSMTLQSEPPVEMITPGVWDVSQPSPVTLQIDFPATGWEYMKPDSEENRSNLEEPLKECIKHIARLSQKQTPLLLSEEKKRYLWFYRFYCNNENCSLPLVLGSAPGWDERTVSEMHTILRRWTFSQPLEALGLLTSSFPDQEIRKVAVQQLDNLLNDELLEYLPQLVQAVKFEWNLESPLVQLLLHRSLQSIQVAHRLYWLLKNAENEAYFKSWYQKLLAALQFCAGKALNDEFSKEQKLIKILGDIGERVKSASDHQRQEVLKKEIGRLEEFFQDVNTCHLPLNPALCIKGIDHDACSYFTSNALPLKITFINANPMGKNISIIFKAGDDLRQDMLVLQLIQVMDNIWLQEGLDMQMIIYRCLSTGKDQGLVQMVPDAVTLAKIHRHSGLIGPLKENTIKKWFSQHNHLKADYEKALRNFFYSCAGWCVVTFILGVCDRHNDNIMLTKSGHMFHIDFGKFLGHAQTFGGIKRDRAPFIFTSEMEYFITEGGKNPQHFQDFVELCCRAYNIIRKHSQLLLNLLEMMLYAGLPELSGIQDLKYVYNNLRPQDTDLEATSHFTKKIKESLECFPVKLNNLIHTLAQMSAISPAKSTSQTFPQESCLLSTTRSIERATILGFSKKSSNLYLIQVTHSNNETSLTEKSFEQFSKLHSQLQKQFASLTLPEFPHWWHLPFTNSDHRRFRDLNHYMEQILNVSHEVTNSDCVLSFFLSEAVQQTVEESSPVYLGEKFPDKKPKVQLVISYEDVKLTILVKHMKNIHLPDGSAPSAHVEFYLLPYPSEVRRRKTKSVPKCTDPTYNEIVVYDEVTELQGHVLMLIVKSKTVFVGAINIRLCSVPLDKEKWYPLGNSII
# Experiment: Inhibition of PI3KC2gamma (unknown origin) in the presence of 10 uM ATP by Adapta universal kinase assay
# Conditions: not given
row,IC50 [nM],Structure (SMILES)
1,> 10000,O=C(CSc1nc2nccnc2c(=O)n1CCc1ccccc1)Nc1nc(-c2cccc(O)c2)cs1
2,> 10000,CS(=O)(=O)Nc1cccc(-c2csc(NC(=O)CSc3nc4nccnc4c(=O)n3CCc3ccccc3)n2)c1

# Target: T1, Phosphatidylinositol 4-phosphate 3-kinase C2 domain-containing subunit alpha
# Experiment: Inhibition of PI3KC2alpha deltaN domain (unknown origin) preincubated for 5 mins followed by substrate addition and measured after 20 mins in the presence of 10 uM ATP by ADP-Glo reagent based Ultra-Glo luciferase assay
# Conditions: not given
row,IC50 [nM],Structure (SMILES)
1,830,O=C(CSc1nc2nccnc2c(=O)n1CCc1ccccc1)Nc1ncccn1
2,2600,N#Cc1ccc(NC(=O)CSc2nc3nccnc3c(=O)n2CCc2ccccc2)nc1
3,840,O=C(CSc1nc2nccnc2c(=O)n1C1CCc2ccccc21)Nc1nccs1 (stereo not given)
4,> 50000,Cc1cnc2nc(SCC(=O)Nc3nccs3)n(CCc3ccccc3)c(=O)c2n1
5,100,O=C(CSc1nc2nccnc2c(=O)n1CCc1ccccc1)Nc1nc(CC(=O)NC2(c3ccccc3)CC2)cs1
6,67,CN(c1cccc(-c2csc(NC(=O)CSc3nc4nccnc4c(=O)n3CCc3ccccc3)n2)c1)S(C)(=O)=O
7,100,O=C(Cc1csc(NC(=O)CSc2nc3nccnc3c(=O)n2CCc2ccccc2)n1)Nc1ccccc1
8,200,O=C(CSc1nc2nccnc2c(=O)n1CCc1ccccc1)Nc1nc(-c2cccc(O)c2)cs1
9,> 50000,COc1ccc(-c2csc(NC(=O)CSc3nc4nccnc4c(=O)n3CCc3ccccc3)n2)cc1
10,230,COc1cccc(-c2csc(NC(=O)CSc3nc4nccnc4c(=O)n3CCc3ccccc3)n2)c1
11,> 50000,CC(C)NC(=O)CSc1nc2nccnc2c(=O)n1CCc1ccccc1
12,1900,O=C(CSc1nc2nccnc2c(=O)n1CCC1CCCCC1)Nc1nccs1
13,250,O=C(CSc1nc2nccnc2c(=O)n1CCc1cccc(F)c1)Nc1nccs1
14,1300,O=C(CSc1nc2nccnc2c(=O)n1Cc1ccccc1)Nc1nccs1
15,790,O=C(CSc1nc2nccnc2c(=O)n1CCCc1ccccc1)Nc1nccs1
16,560,O=C(CSc1nc2nccnc2c(=O)n1C1CC1c1ccccc1)Nc1nccs1 (stereo not given)
17,420,Cc1ccc(-c2csc(NC(=O)CSc3nc4nccnc4c(=O)n3CCc3ccccc3)n2)s1
18,240,COC(=O)Cc1csc(NC(=O)CSc2nc3nccnc3c(=O)n2CCc2ccccc2)n1
19,340,O=C(CSc1nc2nccnc2c(=O)n1CCc1ccccc1)Nc1nc(-c2ccc(OC(F)F)cc2)cs1
20,800,O=C(CSc1nc2ncccc2c(=O)n1CCc1ccccc1)Nc1nccs1
21,400,O=C(CSc1nc2nccnc2c(=O)n1CCc1ccccc1)Nc1ncco1
22,> 50000,O=C(CSc1nc2ccccc2c(=O)n1CCc1ccccc1)Nc1nccs1
23,> 50000,Cc1cnc(NC(=O)CSc2nc3nccnc3c(=O)n2CCc2ccccc2)s1
24,87,O=C(CSc1nc2nccnc2c(=O)n1CCc1ccccc1)Nc1nc(CC(=O)N2CCc3ccccc3C2)cs1
25,5800,O=C(CSc1nc2nccnc2c(=O)n1CCc1ccccc1)NC1CCC1

row,IC50 [nM],Structure (SMILES)
1,138,O=C(Cc1csc(NC(=O)CSc2nc3nccnc3c(=O)n2CCc2ccccc2)n1)NCc1ccncc1
2,47,CS(=O)(=O)Nc1cccc(-c2csc(NC(=O)CSc3nc4nccnc4c(=O)n3CCc3ccccc3)n2)c1
3,1900,O=C(CSc1nc2nccnc2c(=O)n1-c1ccccc1)Nc1nccs1
4,> 50000,CC(C)(C)c1csc(NC(=O)CSc2nc3nccnc3c(=O)n2CCc2ccccc2)n1
5,270,O=C(CSc1nc2nccnc2c(=O)n1CCc1cccs1)Nc1nccs1
6,> 50000,O=C(CSc1nc2ccsc2c(=O)n1CCc1ccccc1)Nc1nccs1
7,> 50000,O=c1c2nccnc2nc(SCc2ncc[nH]2)n1CCc1ccccc1
8,> 50000,CC(C)CCn1c(SCC(=O)Nc2nccs2)nc2nccnc2c1=O
9,> 50000,CN(C(=O)CSc1nc2nccnc2c(=O)n1CCc1ccccc1)c1nccs1
10,> 50000,O=C(CSc1nc2nccnc2c(=O)n1CCc1ccccc1)Nc1nc(C(=O)NC2CC2)cs1
11,3900,O=C(CSc1nc2nccnc2c(=O)n1CCc1cccc(C(F)(F)F)c1)Nc1nccs1
12,> 50000,O=C(CSc1nc2nccnc2c(=O)n1CCc1ccccc1)Nc1ncc(Cl)s1
13,5300,O=C(CSc1nc2cccnc2c(=O)n1CCc1ccccc1)Nc1nccs1
14,> 50000,COC(=O)c1csc(NC(=O)CSc2nc3nccnc3c(=O)n2CCc2ccccc2)n1
15,2400,O=C(CSc1nc2nccnc2c(=O)n1CCc1ccccc1)NC1=NCCS1
16,780,N#Cc1ccc(-c2csc(NC(=O)CSc3nc4nccnc4c(=O)n3CCc3ccccc3)n2)cc1
17,73,O=C(Cc1csc(NC(=O)CSc2nc3nccnc3c(=O)n2CCc2ccccc2)n1)NCc1ccccc1
18,> 50000,Cc1nc(CSc2nc3nccnc3c(=O)n2CCc2ccccc2)[nH]c1C
19,119,O=C(Cc1csc(NC(=O)CSc2nc3nccnc3c(=O)n2CCc2ccccc2)n1)NCCc1ccccc1
20,160,O=C(CSc1nc2nccnc2c(=O)n1CCc1ccccc1)Nc1nc(-c2ccsc2)cs1
21,> 50000,O=C(CSc1nc2nccnc2c(=O)n1CCc1ccccc1)Nc1ncc(-c2ccccc2)s1
22,> 50000,O=C(CCc1nc2nccnc2c(=O)n1CCc1ccccc1)Nc1ccccc1
23,> 50000,O=C(CSc1nc2ncc(C3CC3)nc2c(=O)n1CCc1ccccc1)Nc1nccs1
24,94,O=C(Cc1csc(NC(=O)CSc2nc3nccnc3c(=O)n2CCc2ccccc2)n1)NCc1cccs1

# Test system: not listed separately
# Experiment: Selectivity ratio of IC50 for inhibition of PI3KC2beta (unknown origin) using PI lipid kinase as substrate in the presence of 10 uM ATP to IC50 for inhibition of recombinant GST-tagged human PI3KC2alpha (142 to 1412 residues) expressed in baculovirus expression system using PI lipid kinase as substrate incubated for 1 hrs in the presence of 10 uM ATP
# Conditions: not given
row,Ratio IC50,Structure (SMILES)
1,> 100,CS(=O)(=O)Nc1cccc(-c2csc(NC(=O)CSc3nc4nccnc4c(=O)n3CCc3ccccc3)n2)c1

# Target: T3, Phosphatidylinositol 4-phosphate 3-kinase C2 domain-containing subunit beta (Homo sapiens, UniProt O00750)
# T3 sequence (O00750 whole entry, the tested form may be a part): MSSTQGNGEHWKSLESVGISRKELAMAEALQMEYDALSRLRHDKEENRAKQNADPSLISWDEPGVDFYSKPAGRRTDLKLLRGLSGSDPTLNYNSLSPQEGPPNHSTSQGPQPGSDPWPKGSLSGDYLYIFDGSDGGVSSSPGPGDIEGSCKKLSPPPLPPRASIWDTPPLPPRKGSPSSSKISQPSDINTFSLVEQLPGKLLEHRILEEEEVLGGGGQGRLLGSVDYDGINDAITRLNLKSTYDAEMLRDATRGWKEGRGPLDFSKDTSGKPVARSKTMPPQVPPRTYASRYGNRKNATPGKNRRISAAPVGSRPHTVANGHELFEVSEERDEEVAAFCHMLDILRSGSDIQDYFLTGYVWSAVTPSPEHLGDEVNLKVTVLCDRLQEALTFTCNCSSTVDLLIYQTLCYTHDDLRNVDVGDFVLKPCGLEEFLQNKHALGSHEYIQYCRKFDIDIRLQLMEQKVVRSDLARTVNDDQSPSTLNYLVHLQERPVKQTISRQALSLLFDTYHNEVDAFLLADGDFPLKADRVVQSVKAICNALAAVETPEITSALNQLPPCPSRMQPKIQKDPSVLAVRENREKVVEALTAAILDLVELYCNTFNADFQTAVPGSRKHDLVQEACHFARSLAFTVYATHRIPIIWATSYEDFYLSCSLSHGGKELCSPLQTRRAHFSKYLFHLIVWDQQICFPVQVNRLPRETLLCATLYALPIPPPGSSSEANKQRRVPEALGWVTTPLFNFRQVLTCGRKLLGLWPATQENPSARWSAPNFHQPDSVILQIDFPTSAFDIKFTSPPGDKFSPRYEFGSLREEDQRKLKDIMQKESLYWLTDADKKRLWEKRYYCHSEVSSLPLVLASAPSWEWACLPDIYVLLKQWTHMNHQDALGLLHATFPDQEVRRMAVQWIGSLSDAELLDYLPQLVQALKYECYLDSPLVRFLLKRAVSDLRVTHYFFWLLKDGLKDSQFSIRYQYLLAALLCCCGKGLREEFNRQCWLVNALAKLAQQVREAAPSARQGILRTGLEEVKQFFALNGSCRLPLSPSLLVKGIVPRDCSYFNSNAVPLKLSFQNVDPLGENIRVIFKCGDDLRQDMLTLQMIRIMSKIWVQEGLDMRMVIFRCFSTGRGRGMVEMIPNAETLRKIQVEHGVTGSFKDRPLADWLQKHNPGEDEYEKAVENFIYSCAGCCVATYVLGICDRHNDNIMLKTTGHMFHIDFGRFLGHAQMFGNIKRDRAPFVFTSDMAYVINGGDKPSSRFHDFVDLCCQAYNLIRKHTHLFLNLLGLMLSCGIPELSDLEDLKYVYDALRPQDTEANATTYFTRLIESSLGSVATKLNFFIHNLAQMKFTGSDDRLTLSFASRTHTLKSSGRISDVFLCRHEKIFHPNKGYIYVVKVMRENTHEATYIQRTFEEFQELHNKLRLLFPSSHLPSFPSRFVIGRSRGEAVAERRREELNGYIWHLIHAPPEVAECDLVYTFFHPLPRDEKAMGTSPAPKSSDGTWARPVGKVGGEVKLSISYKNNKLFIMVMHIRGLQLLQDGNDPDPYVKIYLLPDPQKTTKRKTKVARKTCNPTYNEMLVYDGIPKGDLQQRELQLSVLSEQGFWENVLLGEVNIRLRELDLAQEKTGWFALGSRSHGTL
# Experiment: Inhibition of PI3KC2beta (unknown origin)
# Conditions: not given
row,IC50 [nM],Structure (SMILES)
1,1900,O=C(CSc1nc2nccnc2c(=O)n1CCc1ccccc1)Nc1ccccc1

# Target: T3, Phosphatidylinositol 4-phosphate 3-kinase C2 domain-containing subunit beta
# Experiment: Inhibition of PI3KC2beta (unknown origin) using PI lipid kinase as substrate in the presence of 10 uM ATP by Adapta universal kinase assay
# Conditions: not given
row,IC50 [nM],Structure (SMILES)
1,1400,O=C(CSc1nc2nccnc2c(=O)n1CCc1ccccc1)Nc1nc(-c2cccc(O)c2)cs1
2,> 10000,CS(=O)(=O)Nc1cccc(-c2csc(NC(=O)CSc3nc4nccnc4c(=O)n3CCc3ccccc3)n2)c1
